Measured values reported in ChEMBL document CHEMBL3864146, “5-Alkyloxytryptamines are membrane-targeting, broad-spectrum antibiotics” (Bioorg Med Chem Lett, 2016).

Assays:
[1] = test system: Escherichia coli; test: Antibacterial activity against Escherichia coli BW25113 after 16 to 18 hrs by micro-dilution method; format: functional
[2] = test system: Escherichia coli; test: Antibacterial activity against tolC-deficient Escherichia coli BW25113 after 16 to 18 hrs by micro-dilution method; format: functional
[3] = test system: Bacillus subtilis; test: Antibacterial activity against Bacillus subtilis 168 after 16 to 18 hrs by micro-dilution method; format: functional; conditions: subsp. subtilis str. 168
[4] = test system: Pseudomonas aeruginosa; test: Antibacterial activity against Pseudomonas aeruginosa after 16 to 18 hrs by micro-dilution method; format: functional
[5] = test system: Salmonella typhimurium; test: Antibacterial activity against Salmonella typhimurium after 16 to 18 hrs by micro-dilution method; format: functional, Salmonella enterica subsp. enterica serovar Typhimurium; conditions: Salmonella enterica
[6] = test system: Vibrio cholerae; test: Antibacterial activity against Vibrio cholerae after 16 to 18 hrs by micro-dilution method; format: functional
[7] = test system: Shigella boydii; test: Antibacterial activity against Shigella boydii after 16 to 18 hrs by micro-dilution method; format: functional
[8] = test system: Klebsiella pneumoniae; test: Antibacterial activity against Klebsiella pneumoniae after 16 to 18 hrs by micro-dilution method; format: functional
[9] = test system: Klebsiella aerogenes; test: Antibacterial activity against Enterobacter aerogenes after 16 to 18 hrs by micro-dilution method; format: functional
[10] = test system: Acinetobacter baumannii; test: Antibacterial activity against Acinetobacter baumannii after 16 to 18 hrs by micro-dilution method; format: functional
[11] = test system: Edwardsiella tarda; test: Antibacterial activity against Edwardsiella tarda after 16 to 18 hrs by micro-dilution method; format: functional
[12] = test system: Morganella morganii; test: Antibacterial activity against Morganella morganii after 16 to 18 hrs by micro-dilution method; format: functional
[13] = test system: Staphylococcus aureus; test: Antibacterial activity against Staphylococcus aureus after 16 to 18 hrs by micro-dilution method; format: functional
[14] = test system: Escherichia coli; test: Induction of membrane permeabilization in Escherichia coli BW25113 at MIC after 15 mins by propidium iodide staining-based fluorescence microplate reader method relative to 50% ethanol; format: functional

`CCCCCCCCCCCCCCCOc1ccc2[nH]cc(CCN)c2c1.Cl` was tested, and the MIC [1] was > 124 µg/mL, the MIC [2] was > 124 µg/mL and the MIC [3] was > 124 µg/mL. For the same molecule, the MIC [4] was > 124 µg/mL, the MIC [5] was > 124 µg/mL and the MIC [6] was > 124 µg/mL. For the same molecule, the MIC [7] was > 124 µg/mL, the MIC [8] was > 124 µg/mL and the MIC [9] was > 124 µg/mL. For the same molecule, the MIC [10] was > 124 µg/mL, the MIC [11] was > 124 µg/mL and the MIC [12] was > 124 µg/mL. The MIC [13] was > 124 µg/mL and the Activity [14] was 13%.
`Cc1[nH]c2ccc(O)cc2c1CCN` was tested, and the MIC [1] was > 60.8 µg/mL, the MIC [2] was > 60.8 µg/mL and the MIC [3] was > 60.8 µg/mL. The MIC [10] was > 60.8 µg/mL and the MIC [13] was > 60.8 µg/mL.
`CCCCCCCCCOc1ccc2[nH]cc(CC[N+](C)(C)C)c2c1` gave an MIC [1] of 52 µg/mL, an MIC [2] of 6.5 µg/mL and an MIC [3] of 52 µg/mL. The MIC [4] was 52 µg/mL, the MIC [5] was 26 µg/mL and the MIC [6] was > 104 µg/mL. It also gave an MIC [7] of 26 µg/mL, an MIC [8] of 26 µg/mL and an MIC [9] of 52 µg/mL. For the same molecule, the MIC [10] was 52 µg/mL, the MIC [11] was 26 µg/mL and the MIC [12] was > 104 µg/mL. The MIC [13] was 6.5 µg/mL.
For `NCCc1c[nH]c2ccc(O)cc12` [SEROTONIN], the MIC [1] was > 56.4 µg/mL, the MIC [2] was > 56.4 µg/mL and the MIC [3] was > 56.4 µg/mL. The MIC [10] was > 56.4 µg/mL and the MIC [13] was > 56.4 µg/mL.
